The source of these data is patent publication US12612386B2, “Heteroaryl-triazole compounds as pesticides” (Bayer Aktiengesellschaft, priority 2020, dated 2026).

Holding throughout (assay type): in vivo
The subject of test [1] is fall armyworm larvae (Spodoptera frugiperda). Briefly: whole plant or invertebrate. To be noted: 168 h. An outline of the steps: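 Percent kill of Spodoptera frugiperda caterpillars, read 7 days after infestation of dried, spray-treated Zea mays leaf pieces. Spray preparation: compound in acetone plus dimethylformamide, diluted with emulsifier-containing water.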
Test [2] deals with larvae of the southern green stink bug (Nezara viridula). Briefly: whole plant or invertebrate. The note with it: 96 h. An outline of the steps:
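Percent mortality of southern green stink bug larvae was recorded at day 4, with 100% meaning all dead. The larvae were placed on barley sprayed with the test solution. That solution was prepared from acetone/dimethylformamide concentrate diluted in emulsifier-containing water (1000 ppm).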

For test [3], the system named is larvae of the banded cucumber beetle (Diabrotica balteata). Briefly: Diabrotica balteata spray test. To be noted: 168 h, 100 g/ha (=32 μg/well), after 7 days, read-out: efficacy (seedling growth). An outline of the steps: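 Efficacy is seedling survival after 7 days, where 0% means no seedlings grew and 100% means growth equal to untreated, uninfested controls. Wheat seedlings, germinated on agar for 1 day, were sprayed with the aqueous emulsifier dilution (acetone/DMF solvent) and then exposed to 10–20 banded cucumber beetle larvae.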

The subject of test [4] is green peach aphid (Myzus persicae). Briefly: Myzus persicae spray test (MYZUPE). The note with it: 120 h, 100 g/ha, after 5 days. On the procedure:
Myzus persicae—Spray Test
• Solvent: 78.0 parts by weight acetone • 1.5 parts by weight dimethylformamide • Emulsifier: alkylarylpoly glycol ether
(§1) To produce a suitable preparation of active compound, 1 part by weight of active compound is mixed with the stated amount of solvents and is diluted with water, containing an emulsifier concentration of 1000 ppm, to the desired concentration. Further test concentrations are prepared by dilution with emulsifier containing water.
Chinese cabbage (Brassica pekinensis) leaf disks infected with all instars of the green peach aphid (Myzus persicae), are sprayed with a preparation of the active ingredient of the desired concentration.
After 5 days mortality in % is determined. 100% means all aphids have been killed and 0% means none of the aphids have been killed.
Myzus persicae—Spray Test (MYZUPE)
• Solvent: 78.0 parts by weight acetone • 1.5 parts by weight dimethylformamide • Emulsifier: alkylarylpolyglycol ether
After the specified period of time, mortality in % is determined. 100% means all aphids have been killed and 0% means none of the aphids have been killed.

Test [5] deals with brown planthopper (Nilaparvata lugens). Briefly: Nilaparvata lugens spray test. The note with it: 96 h. The procedure: Nilaparvata lugens—Spray Test
• Solvent: 78.0 parts by weight of acetone • 1.5 parts by weight of dimethylformamide • Emulsifier: alkylarylpolyglycol ether
as §1
Rice plants (Oryza sativa) are sprayed with a preparation of the active ingredient of the desired concentration and the plants are infested with the brown planthopper (Nilaparvata lugens).
After 4 days mortality in % is determined. 100% means all planthoppers have been killed and 0% means none of the planthoppers have been killed.

The test system of test [6] is cattle tick larvae (Rhipicephalus microplus), strain Parkhurst, resistant against synthetic pyrethroids. Briefly: Rhipicephalus (Boophilus) microplus in-vitro contact test, larval cattle tick. The note with it: 5 μg/cm^2 (=500 g/ha), after 48 hours. The procedure: Rhipicephalus (Boophilus) Microplus—In-Vitro Contact Tests Larval Cattle Tick (Strain Parkhurst, Resistant Against Synthetic Pyrethroids)
9 mg compound is solved in 1 mL acetone and diluted with acetone to the desired concentration. 250 μL of the test solution is filled in 25 mL glass test tubes and homogeneously distributed on the inner walls by rotation and tilting on a shaking device (2 h at 30 rpm). With a compound concentration of 900 ppm, an inner surface of 44.7 cm^2 and a homogeneous distribution, a dose of 5 μg/cm^2 is achieved.
After the solvent has evaporated, each test tube is filled with 20-50 cattle tick larvae (Rhipicephalus microplus), closed with a perforated lid and incubated in a horizontal position at 85% relative humidity and 27° C. in an incubator. After 48 hours efficacy is determined. The larvae are patted on the ground of the tubes and negative geotactic behavior is recorded.
An efficacy of 100% means all larvae are dead or moribund; 0% means no larvae are dead or moribund.

For `C[C@H](NC(=O)c1cc(F)cc(OC(F)F)c1)c1ncnn1-c1cc(C(N)=O)ncn1` [I-79], the mortality at 100 g/ha in test [1] and in test [4] was 100% each time. In addition, the mortality at 500 g/ha in test [2] and in test [5] was 100% in each case. For the same molecule, the pest or weed control at 32 µg/disc, 100 g/ha in test [3] worked out at 100%.
As to `C[C@H](NC(=O)c1cc(C(F)(F)F)cc(C(F)(F)F)c1)c1ncnn1-c1cc(C(=O)N(C)C)ncn1` [I-129], the mortality at 100 g/ha in test [1] and in test [4] was 100% each time. The mortality at 500 g/ha in test [2] and in test [5] was 100% throughout. In test [3], the pest or weed control at 32 µg/disc, 100 g/ha turned out to be 100%.
For the molecule `Cc1nc([C@H](C)NC(=O)c2cc(C(F)(F)F)cc(C(F)(F)F)c2)n(-c2cc(C(N)=O)ncn2)n1` [I-136], the figures for the mortality at 100 g/ha in test [1] and in test [4] were 100% and 90%, respectively. The mortality at 500 g/ha in test [2] and in test [5] was 100% throughout. Also, in test [3], the pest or weed control at 32 µg/disc, 100 g/ha turned out to be 100%.
For `CNC(=O)c1nccc(-n2ncnc2[C@H](C)NC(=O)c2cc(OC(F)(F)F)cc(OC(F)(F)F)c2)n1` [I-116], the mortality at 100 g/ha in test [1], in test [2] and in test [4] was 100% in each case. The mortality at 500 g/ha in test [2] and in test [5] was 100% throughout. In test [3], the pest or weed control at 32 µg/disc, 100 g/ha stood at 100%.
`C[C@H](NC(=O)c1cc(OC(F)(F)F)cc(OC(F)(F)F)c1)c1nc(C2CC2)nn1-c1cc(C#N)ncn1` [I-37]: in test [3], the pest or weed control at 32 µg/disc, 100 g/ha turned out to be 80%. Also, the “efficacy (larvae dead or moribund)” value in test [6] worked out at 100%.
Regarding `C[C@H](NC(=O)c1cc(OC(F)(F)F)cc(C2(C#N)CC2)c1)c1ncnn1-c1cc(C(N)=O)ncn1` [I-120], the mortality (in general, the percentage killed) at 100 g/ha in test [1] worked out at 100%; in test [2] it was 100%; in test [4], 90%. Also, the mortality at 500 g/ha in test [2] and in test [5] was 100% each time. The pest or weed control at 32 µg/disc, 100 g/ha in test [3] was determined as 100%.
Regarding `C[C@H](NC(=O)c1cc(Cl)nc(C2(C#N)CC2)c1)c1ncnn1-c1cc(C#N)ncn1` [I-35, 2-chloro-6-(1-cyanocyclopropyl)-N-[(1S)-1-[2-(6-cyanopyrimidin-4-yl)-1,2,4-triazol-3-yl]ethyl]pyridine-4-carboxamide], the mortality at 100 g/ha in test [1] amounted to 100%. The pest or weed control at 32 µg/disc, 100 g/ha in test [3] was determined as 100%. For the same molecule, the “efficacy (larvae dead or moribund)” value in test [6] is on record as 100%.
With `C[C@H](NC(=O)c1cc(Cl)cc(C#N)c1)c1ncnn1-c1cc(C(N)=O)ncn1` [I-125], the values for the mortality at 100 g/ha in test [1], in test [2] and in test [4] were 100%, 100% and 70%, respectively. In addition, the mortality at 500 g/ha in test [2] and in test [5] was 100% throughout. In addition, the pest or weed control at 32 µg/disc, 100 g/ha in test [3] was 100%.
With `Cc1nc([C@H](C)NC(=O)c2cc(OC(F)F)cc(OC(F)F)c2)n(-c2cc(C#N)ncn2)n1` [I-22], in test [1], the mortality at 100 g/ha is 100%. The same molecule returned a mortality at 500 g/ha in test [2] of 100%. For the same molecule, in test [3], the pest or weed control at 32 µg/disc, 100 g/ha stood at 100%. For the same molecule, the “efficacy (larvae dead or moribund)” value in test [6] was 100%.
With `CNC(=O)c1cc(-n2ncnc2[C@H](C)NC(=O)c2cc(OC(F)(F)F)cc(S(C)(=O)=O)c2)ncn1` [I-83], the mortality at 100 g/ha in test [1] and in test [4] was 100% in each case. Besides, the mortality at 500 g/ha in test [2] and in test [5] was 100% throughout. Further, the pest or weed control at 32 µg/disc, 100 g/ha in test [3] amounted to 100%.
Regarding `Cc1nc([C@H](C)NC(=O)c2cccc(OC(F)(F)F)c2)n(-c2cc(C(N)=O)ncn2)n1` [I-101], the mortality at 100 g/ha in test [1] came to 100%; in test [4], 90%. Besides, the mortality at 500 g/ha in test [2] and in test [5] was 100% throughout. Moreover, the pest or weed control at 32 µg/disc, 100 g/ha in test [3] was 100%.
Regarding `CNC(=O)c1cc(-n2ncnc2[C@H](C)NC(=O)c2cc(Br)cc(OC(F)F)c2)ncn1` [I-72], the values for the mortality at 100 g/ha in test [1] and in test [4] were 100% and 90%, respectively. Further, the mortality at 500 g/ha in test [2] and in test [5] was 100% throughout. Also, the pest or weed control at 32 µg/disc, 100 g/ha in test [3] stood at 80%.
Take `C[C@H](NC(=O)c1cc(C#N)cc(OC(F)(F)F)c1)c1ncnn1-c1cc(C(N)=O)ncn1` [I-121]: the mortality at 100 g/ha came out at 100% in test [1], 100% in test [2] and 90% in test [4]. For the same molecule, the mortality at 500 g/ha in test [2] and in test [5] was 100% throughout. Moreover, the pest or weed control at 32 µg/disc, 100 g/ha in test [3] stood at 100%.
`CNC(=O)c1cc(-n2ncnc2[C@H](C)NC(=O)c2cc(C(F)(F)F)cc(S(C)(=O)=O)c2)ncn1` [I-81]: the mortality at 100 g/ha in test [1] and in test [4] was 100% in each case. The mortality at 500 g/ha in test [2] and in test [5] was 100% each time. Also, the pest or weed control at 32 µg/disc, 100 g/ha in test [3] was found to be 100%.
On to `CNC(=O)c1cc(-n2ncnc2[C@H](C)NC(=O)c2cc(OC(F)F)cc(OC(F)F)c2)ncn1` [I-94], for which the mortality at 100 g/ha in test [1] and in test [4] was 100% in each case. In addition, the mortality at 500 g/ha in test [2] and in test [5] was 100% throughout. Moreover, in test [3], the pest or weed control at 32 µg/disc, 100 g/ha was 100%.
Turning to `C[C@H](NC(=O)c1cc(OC(F)(F)F)cc(S(C)(=O)=O)c1)c1ncnn1-c1cc(C(N)=O)ncn1` [I-82], the mortality at 100 g/ha in test [1] was found to be 100%; in test [4], 90%. Moreover, the mortality at 500 g/ha in test [2] and in test [5] was 100% each time. Moreover, the pest or weed control at 32 µg/disc, 100 g/ha in test [3] was 100%.
Regarding `C[C@H](NC(=O)c1cc(Cl)cc(S(=O)(=O)C(F)F)c1)c1ncnn1-c1cc(C(N)=O)ncn1` [I-118], the mortality at 100 g/ha came to 100% in test [1], 100% in test [2] and 90% in test [4]. Further, the mortality at 500 g/ha in test [2] and in test [5] was 100% throughout. Besides, in test [3], the pest or weed control at 32 µg/disc, 100 g/ha was 100%.
For the molecule `C[C@H](NC(=O)c1cc(C(F)(F)F)cc(S(C)(=O)=O)c1)c1ncnn1-c1cc(C(N)=O)ncn1` [I-78], the mortality at 100 g/ha turned out to be 100% in test [1] and 90% in test [4]. Also, the mortality at 500 g/ha in test [2] and in test [5] was 100% in each case. Moreover, in test [3], the pest or weed control at 32 µg/disc, 100 g/ha came out at 100%.
Regarding `C[C@H](NC(=O)c1cccc(S(=O)(=O)C(F)(F)F)c1)c1ncnn1-c1cc(C(N)=O)ncn1` [I-140], the mortality at 100 g/ha in test [1] and in test [4] was 100% throughout. The mortality at 500 g/ha amounted to 100% in test [2] and 90% in test [5]. Also, the pest or weed control at 32 µg/disc, 100 g/ha in test [3] came to 100%.
Regarding `C[C@H](NC(=O)c1cccc(C(F)(F)F)c1)c1ncnn1-c1cc(C(N)=O)ncn1` [I-92], the mortality at 100 g/ha in test [1] and in test [4] was 100% in each case. For the same molecule, the mortality at 500 g/ha in test [2] and in test [5] was 100% each time. The pest or weed control at 32 µg/disc, 100 g/ha in test [3] is 100%.
